In ChEMBL document CHEMBL5126668, “The Invention of WM382, a Highly Potent PMIX/X Dual Inhibitor toward the Treatment of Malaria” (ACS Med Chem Lett, 2022):
In brackets after ≈: the same amount, converted by molar mass.

Legend:
Plasmodium falciparum [1] = experiment: Antimalarial activity against asexual blood stage Plasmodium falciparum infected in RBC measured after 72 hrs by LDH release assay; assay type: functional, organism-based; settings: Erythrocyte
[2] = Lipophilicity, log D of compound at pH 7.4; assay type: physicochemical; settings: buffer
[3] = Unbound plasma clearance in mouse; assay type: ADME, organism-based; settings: in vivo
[4] = Unbound volume of distribution in rat; assay type: ADME; settings: in vivo
[5] = Kinetic solubility of the compound; assay type: physicochemical; settings: read-out: Kinetic_solubility
[6] = Unbound volume of distribution in mouse; assay type: ADME, organism-based; settings: in vivo
Plasmodium falciparum [7] = experiment: Antimalarial activity Plasmodium falciparum Dd2 assessed as EC90 fold pressure measured up to 62 days by microscopy; assay type: functional; settings: Dd2, 1488 h, time <= 62 day
[8] = Mean residence time in mouse; assay type: ADME, organism-based; settings: in vivo
Plasmepsin IX = molecular target: T1, Plasmepsin IX (Plasmodium falciparum, UniProt Q8ILG2); experiment: Inhibition of Plasmodium falciparum 3D7 HA-glms-tagged PMIX using DABCYL-HSFIQEGKEE-EDANS as substrate measured after 2 hrs by FRET assay
T1 sequence (Q8ILG2 whole entry): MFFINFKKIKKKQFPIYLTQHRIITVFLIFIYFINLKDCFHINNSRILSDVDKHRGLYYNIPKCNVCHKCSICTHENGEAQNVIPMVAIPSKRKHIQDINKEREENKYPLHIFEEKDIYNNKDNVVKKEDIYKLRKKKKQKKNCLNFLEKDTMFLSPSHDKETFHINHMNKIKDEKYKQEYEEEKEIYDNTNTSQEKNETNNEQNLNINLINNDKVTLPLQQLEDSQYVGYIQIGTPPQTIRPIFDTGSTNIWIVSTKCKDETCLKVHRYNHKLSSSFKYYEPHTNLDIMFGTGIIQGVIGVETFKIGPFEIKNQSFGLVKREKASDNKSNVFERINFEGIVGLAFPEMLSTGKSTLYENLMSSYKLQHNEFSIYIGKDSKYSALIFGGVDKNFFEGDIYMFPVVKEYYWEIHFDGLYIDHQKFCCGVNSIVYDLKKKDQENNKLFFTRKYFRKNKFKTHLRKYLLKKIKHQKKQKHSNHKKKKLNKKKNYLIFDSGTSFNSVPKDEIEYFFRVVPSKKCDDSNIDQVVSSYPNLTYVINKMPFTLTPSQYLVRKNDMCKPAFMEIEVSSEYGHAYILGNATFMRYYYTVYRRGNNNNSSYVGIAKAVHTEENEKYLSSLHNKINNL

[9] = Plasma clearance in rat; assay type: ADME
[10] = Oral bioavailability in rat; assay type: ADME, organism-based; settings: in vivo
[11] = Volume of distribution in rat; assay type: ADME; settings: in vivo
[12] = Unbound clearance in rat; assay type: ADME; settings: in vivo
[13] = Mean residence time in rat; assay type: ADME; settings: in vivo
Plasmepsin X = Plasmepsin X (Plasmodium falciparum (isolate 3D7), UniProt Q8IAS0); experiment: Inhibition of Plasmodium falciparum 3D7 HA-glms-tagged PMX using DABCYL-HSFIQEGKEE-EDANS as substrate measured after 2 hrs by FRET assay
Plasmepsin X, sequence (Q8IAS0 whole entry): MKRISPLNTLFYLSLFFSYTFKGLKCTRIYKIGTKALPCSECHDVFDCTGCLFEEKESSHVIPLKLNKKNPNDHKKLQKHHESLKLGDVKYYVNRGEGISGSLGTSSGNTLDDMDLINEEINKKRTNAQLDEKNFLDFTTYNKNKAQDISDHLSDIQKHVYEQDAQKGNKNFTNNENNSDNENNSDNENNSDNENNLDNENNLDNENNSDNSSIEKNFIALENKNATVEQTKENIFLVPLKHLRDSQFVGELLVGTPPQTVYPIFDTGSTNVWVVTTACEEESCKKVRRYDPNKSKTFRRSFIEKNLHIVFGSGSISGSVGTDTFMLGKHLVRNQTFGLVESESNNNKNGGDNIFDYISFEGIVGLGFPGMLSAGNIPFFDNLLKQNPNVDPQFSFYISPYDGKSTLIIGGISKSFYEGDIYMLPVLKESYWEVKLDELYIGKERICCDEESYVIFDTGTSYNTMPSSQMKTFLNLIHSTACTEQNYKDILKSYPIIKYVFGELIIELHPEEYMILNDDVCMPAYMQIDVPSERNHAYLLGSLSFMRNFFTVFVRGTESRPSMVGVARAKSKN

Plasmodium falciparum [14] = experiment: Antimalarial activity Plasmodium falciparum Dd2 assessed as minimum inoculum for resistance measured up to 62 days by microscopy; assay type: functional; settings: time <= 62 day
[15] = Plasma clearance in mouse; assay type: ADME, organism-based
[16] = molecular target: T2, Plasmepsin IX (Plasmodium falciparum) (UniProt Q8ILG2); experiment: Inhibition of Plasmodium falciparum 3D7 HA-glms-tagged PMIX at 10 nM using DABCYL-HSFIQEGKEE-EDANS as substrate measured after 2 hrs by FRET assay relative to control
T2 sequence (whole entry): T1 sequence (Q8ILG2 whole entry)

[17] = molecular target: Plasmepsin X (Plasmodium falciparum (isolate 3D7)) (UniProt Q8IAS0); experiment: Inhibition of Plasmodium falciparum 3D7 HA-glms-tagged PMX at 10 nM using DABCYL-HSFIQEGKEE-EDANS as substrate measured after 2 hrs by FRET assay relative to control
Plasmepsin X (Plasmodium falciparum (isolate 3D7)), sequence (Q8IAS0 whole entry): as above

[18] = Volume of distribution in mouse; assay type: ADME, organism-based; settings: in vivo
[19] = Apparent permeability across apical to basolateral side in MDCK cells; assay type: ADME, cell-based, Canis lupus familiaris; settings: dog
[20] = Protein binding in mouse plasma; assay type: ADME, cell-free; settings: read-out: PPB (converted)
[21] = Protein binding in rat plasma; assay type: ADME, cell-free; settings: read-out: PPB (converted)
[22] = Oral bioavailability in mouse; assay type: ADME, organism-based; settings: in vivo

Q: Which EC50 (Plasmodium falciparum [1]) does the source give for `CCC1(CC)CC(=O)N(Cc2cccc(C(=O)N[C@H]3CCOc4ccccc43)n2)C(=N)N1` here?
A: 110 nM

Q: With `CCC1(CC)CC(=O)N(Cc2cccc(C(=O)N[C@H]3CCOc4ccccc43)c2)C(=N)N1` as the compound, how does the EC50 (Plasmodium falciparum [1]) read?
A: 0.4 nM

Q: For `CC(C)[C@]1(C)CC(=O)N(Cc2cc(F)cc(C(=O)N[C@@H](C)c3ccccc3)c2)C(=N)N1`, which EC50 (Plasmodium falciparum [1]) is on record?
A: 340 nM

Q: With `C[C@H](NC(=O)c1cc(F)cc(CN2C(=N)NC(c3ccccc3)CC2=O)c1)c1ccccc1` (single isomer, unassigned) as the compound, how does the EC50 (Plasmodium falciparum [1]) read?
A: > 1000 nM

Q: With `CC(C)[C@]1(C)CC(=O)N([C@@H](c2ccccc2)c2cccc(C(=O)N[C@@H](C)c3ccccc3)c2)C(=N)N1` as the compound, how does the EC50 (Plasmodium falciparum [1]) read?
A: 440 nM

Q: With `CCC1(CC)CC(=O)N([C@@H]2CCOc3ccc(C(=O)N[C@H]4CC(C)(C)Oc5ccccc54)cc32)C(=N)N1` as the compound, how does the EC50 (Plasmodium falciparum [1]) read?
A: 0.4 nM

Q: And the logD [2]?
A: 2.5

Q: And the CL free [3]?
A: 774 mL/min/kg

Q: What about the Vdu [4] of the same compound?
A: 222 L/kg

Q: And the solubility kinetic [5]?
A: 0.1 µM (≈ 0.0505 µg/mL)

Q: And the Vdu [6]?
A: 120 L/kg

Q: What about the EC90 (Plasmodium falciparum [7]) of the same compound?
A: 1.5 nM

Q: What about the MRT [8] of the same compound?
A: 2.5 h

Q: And the IC50 (Plasmepsin IX)?
A: 1.4 nM

Q: What about the clearance [9] of the same compound?
A: 42 mL/min/kg

Q: What about the bioavailability [10] of the same compound?
A: 8%

Q: What about the Vd [11] of the same compound?
A: 9.4 L/kg

Q: And the CL free [12]?
A: 1022 mL/min/kg

Q: And the MRT [13]?
A: 3.7 h

Q: What about the IC50 (Plasmepsin X) of the same compound?
A: 0.03 nM

Q: And the Activity (Plasmodium falciparum [14])?
A: >9

Q: And the clearance [15]?
A: 42 mL/min/kg

Q: For `CCC1(CC)CC(=O)N([C@H](c2ccccc2)c2cccc(C(=O)N[C@@H](C)c3ccccc3)c2)C(=N)N1`, which EC50 (Plasmodium falciparum [1]) is on record?
A: 1 nM

Q: Which EC50 (Plasmodium falciparum [1]) does the source give for `CC(C)[C@]1(C)CC(=O)N(Cc2cccc(C(=O)N3Cc4ccccc4C3)c2)C(=N)N1` here?
A: > 1000 nM

Q: Which EC50 (Plasmodium falciparum [1]) does the source give for `CC(C)C[C@@H](c1ccc(C(F)(F)F)c(C(=O)N2Cc3nccnc3C2)c1)N1C(=N)N[C@](CC2CC2)(c2ccccc2)CC1=O` here?
A: 690 nM

Q: Which EC50 (Plasmodium falciparum [1]) does the source give for `CC(C)C[C@H](c1ccc(C(F)(F)F)c(C(=O)N2Cc3nccnc3C2)c1)N1C(=N)N[C@](CC2CC2)(c2ccccc2)CC1=O` here?
A: 10 nM

Q: And the IC50 (Plasmepsin X)?
A: 5.7 nM

Q: Which results are given for `CCC1(CC)CC(=O)N([C@@H]2CCOc3ccc(C(=O)NC4CC(=O)Oc5ccccc54)cc32)C(=N)N1` (mixture of isomers)?
A: inhibition [16]: 12%; EC50 (Plasmodium falciparum [1]): 220 nM; inhibition [17]: 40%

Q: Which EC50 (Plasmodium falciparum [1]) does the source give for `C[C@H](NC(=O)c1cc(F)cc(CN2C(=N)N[C@@](CC3CC3)(c3ccccc3)CC2=O)c1)c1ccccc1` here?
A: 22 nM

Q: With `CCC1(CC)CC(=O)N(Cc2ccnc(C(=O)N[C@H]3CCOc4ccccc43)n2)C(=N)N1` as the compound, how does the EC50 (Plasmodium falciparum [1]) read?
A: 65 nM

Q: For `CC(C)[C@]1(C)CC(=O)N(Cc2cccc(C(=O)NC3CCc4ccccc43)c2)C(=N)N1` (mixture of isomers), which EC50 (Plasmodium falciparum [1]) is on record?
A: 66 nM

Q: For `CCC1(CC)CC(=O)N(Cc2ccnc(C(=O)N[C@H]3CCOc4ccccc43)c2)C(=N)N1`, which EC50 (Plasmodium falciparum [1]) is on record?
A: 17 nM

Q: Which EC50 (Plasmodium falciparum [1]) does the source give for `CCC1(CC)CC(=O)N([C@H](CCOC)c2cccc(C(=O)N[C@@H](C)c3ccccc3)c2)C(=N)N1` here?
A: 40 nM

Q: For `C[C@H](NC(=O)c1cc(F)cc(CN2C(=N)N[C@]3(C)CCCC[C@]3(C)C2=O)c1)c1ccccc1`, which EC50 (Plasmodium falciparum [1]) is on record?
A: > 1000 nM

Q: With `CC(C)[C@]1(C)CC(=O)N([C@H](c2ccccc2)c2cccc(C(=O)N[C@@H](C)c3ccccc3)c2)C(=N)N1` as the compound, how does the EC50 (Plasmodium falciparum [1]) read?
A: 4.6 nM

Q: And the IC50 (Plasmepsin X)?
A: 1.9 nM

Q: Which EC50 (Plasmodium falciparum [1]) does the source give for `CCC1(CC)CC(=O)N(Cc2cc(C(=O)N[C@H]3CCOc4ccccc43)cnn2)C(=N)N1` here?
A: 169 nM

Q: With `C[C@H](NC(=O)c1cc(F)cc(CN2C(=N)NC(C)(C)CC2=O)c1)c1ccccc1` as the compound, how does the EC50 (Plasmodium falciparum [1]) read?
A: > 1000 nM

Q: With `CCC[C@H](c1cccc(C(=O)N[C@H]2CCOc3ccccc32)c1)N1C(=N)NC(CC)(CC)CC1=O` as the compound, how does the EC50 (Plasmodium falciparum [1]) read?
A: 0.4 nM

Q: What about the logD [2] of the same compound?
A: 2.9

Q: What about the CL free [3] of the same compound?
A: 3148 mL/min/kg

Q: What about the Vd [18] of the same compound?
A: 2.3 L/kg

Q: What about the Vdu [4] of the same compound?
A: 340 L/kg

Q: And the solubility kinetic [5]?
A: 0.2 µM (≈ 0.0953 µg/mL)

Q: What about the Vdu [6] of the same compound?
A: 204 L/kg

Q: What about the Papp A→B [19] of the same compound?
A: 16.3 ×10⁻⁶ cm/s

Q: What about the fraction unbound [20] of the same compound?
A: 0.011

Q: And the MRT [8]?
A: 1.1 h

Q: What about the IC50 (Plasmepsin IX) of the same compound?
A: 4.5 nM

Q: And the clearance [9]?
A: 103 mL/min/kg

Q: What about the bioavailability [10] of the same compound?
A: 6%

Q: What about the Vd [11] of the same compound?
A: 6.7 L/kg

Q: And the CL free [12]?
A: 5648 mL/min/kg

Q: And the fraction unbound [21]?
A: 0.02

Q: And the MRT [13]?
A: 1.1 h

Q: What about the bioavailability [22] of the same compound?
A: 14%

Q: And the IC50 (Plasmepsin X)?
A: 0.06 nM

Q: What about the clearance [15] of the same compound?
A: 36 mL/min/kg

Q: Which EC50 (Plasmodium falciparum [1]) does the source give for `CCC1(CC)CC(=O)N(C(c2cccc(C(=O)N[C@@H](C)c3ccccc3)c2)C2CC2)C(=N)N1` (mixture of isomers) here?
A: 160 nM

Q: With `CC(C)[C@]1(C)CC(=O)N(C(c2ccccc2)c2cccc(C(=O)N[C@@H](C)c3ccccc3)c2)C(=N)N1` (some centres undefined) as the compound, how does the EC50 (Plasmodium falciparum [1]) read?
A: 6.2 nM

Q: What about the EC90 (Plasmodium falciparum [7]) of the same compound?
A: 80 nM

Q: And the Activity (Plasmodium falciparum [14])?
A: >9
